From the NIST ThermoML archive (doi:10.1021/je700035m)
Numbers after ± are expanded uncertainties.

Legend:
[1] = Crystal; DTA
[2] = molar enthalpy of vaporization or sublimation; details: 298.15 K, vacuum sublimation/vaporization calorimetry
[3] = Molar enthalpy of transition or fusion; details: Crystal; DSC

With O=[N+]([O-])c1ccc2c(c1)OCO2 [1,2-(methylenedioxy)-4-nitrobenzene] as the compound, how does the Normal melting temperature [1] read?
Its Normal melting temperature is 147.01 ± 0.39 °C.

And the molar enthalpy ([2]; Crystal)?
The molar enthalpy was 23.3 ± 1.03 kcal/mol.

What about the “Molar enthalpy of transition or fusion” value [3] of the same compound?
Its value is 6.74 ± 0.287 kcal/mol.

Which Normal melting temperature [1] does the source give for N#Cc1ccc2c(c1)OCO2 [3,4-methylenedioxybenzonitrile] here?
The Normal melting temperature was 93.11 ± 0.39 °C.

And the molar enthalpy ([2]; Crystal)?
The molar enthalpy was 21.7 ± 0.43 kcal/mol.

And the “Molar enthalpy of transition or fusion” value [3]?
The value was 4.97 ± 0.12 kcal/mol.

Which molar enthalpy ([2]; Liquid) does the source give for Cc1ccc2c(c1)OCO2 [5-methyl-1,3-benzodioxole] here?
Its molar enthalpy is 13.1 ± 0.55 kcal/mol.

Which Normal melting temperature [1] does the source give for CC(=O)c1ccc2c(c1)OCO2 [5-oxoethyl-1,3-benzodioxole] here?
The Normal melting temperature was 85.72 ± 0.39 °C.

And the molar enthalpy ([2]; Crystal)?
The molar enthalpy was 25 ± 1.03 kcal/mol.

And the “Molar enthalpy of transition or fusion” value [3]?
The value was 6.27 ± 0.141 kcal/mol.
